Test results reported in US10151975B2, “Lithographic printing plate precursor” (AGFA NV, priority 2013, dated 2018).

Assay: Solubility of the compounds: visual homogeneity of mixture in aqueous buffer pH 7
Type: physicochemical
Design: key to Visual homogeneity After 1 hour / Visual homogeneity After 1 day / Visual homogeneity After 4 days / Visual homogeneity After 1 week / Visual homogeneity After 2 weeks: −: heterogeneous mixture; +: homogeneous mixture
Conditions: for Time after which the mixture becomes homogeneous: 100 mg compound in 5 ml aqueous buffer pH = 7; for Visual homogeneity After 1 week / Visual homogeneity After 2 weeks / Visual homogeneity After 1 hour / Visual homogeneity After 1 day / Visual homogeneity After 4 days: 100 mg compound in 5 ml aqueous buffer pH = 7, room temperature
Experimental: Solubility of the Compounds
100 mg of the inventive and comparative compounds were added to 5 ml of a CertiPUR pH=7 buffer solution available from Merck. The mixture was gently stirred at room temperature and the homogeneity of the mixture was evaluated visually after different times: […]

C=CC(=O)OCCCCOC(=C)C(=O)OCCCCOC(=O)C=C [Compound M-2]
Time after which the mixture becomes homogeneous: 1 week
Visual homogeneity After 1 week: +
Visual homogeneity After 2 weeks: +
Visual homogeneity After 1 hour: −
Visual homogeneity After 1 day: −
Visual homogeneity After 4 days: −

C=CC(=O)OCCOCCOc1ccc(C(C)(C)c2ccc(OCCOC(=O)C=C)cc2)cc1 [Compound M-7]
Visual homogeneity After 1 week: −
Visual homogeneity After 2 weeks: −
Visual homogeneity After 1 hour: −
Visual homogeneity After 1 day: −
Visual homogeneity After 4 days: −

C=CC(=O)OCCn1c(=O)n(CCOC(=O)C=C)c(=O)n(CCOC(=O)C=C)c1=O [Compound M-6]
Visual homogeneity After 1 week: −
Visual homogeneity After 2 weeks: −
Visual homogeneity After 1 hour: −
Visual homogeneity After 1 day: −
Visual homogeneity After 4 days: −

C=C(C)C(=O)OCCCNC(=O)C(=O)NCCCOC(=O)C(=C)C [Compound M-4]
Visual homogeneity After 1 week: −
Visual homogeneity After 2 weeks: −
Visual homogeneity After 1 hour: −
Visual homogeneity After 1 day: −
Visual homogeneity After 4 days: −

C=CC(=O)NCCOC(=O)C(=O)OCCNC(=O)C=C [Compound M-3]
Time after which the mixture becomes homogeneous: 1 days
Visual homogeneity After 1 week: +
Visual homogeneity After 2 weeks: +
Visual homogeneity After 1 hour: −
Visual homogeneity After 1 day: +
Visual homogeneity After 4 days: +

C=C(C)C(=O)OCCOC(=O)NCCC(C)CC(C)(C)CNC(=O)OCCOC(=O)C(=C)C (centres unmarked) [Compound M-5]
Visual homogeneity After 1 week: −
Visual homogeneity After 2 weeks: −
Visual homogeneity After 1 hour: −
Visual homogeneity After 1 day: −
Visual homogeneity After 4 days: −

C=C(C)C(=O)OCCOC(=O)C(=O)OCCOC(=O)C(=C)C [Compound M-1]
Time after which the mixture becomes homogeneous: 1 week
Visual homogeneity After 1 week: +
Visual homogeneity After 2 weeks: +
Visual homogeneity After 1 hour: −
Visual homogeneity After 1 day: −
Visual homogeneity After 4 days: −
